The text below walks through data of patent US12404239B2, “Modulators of BCL6 as ligand directed degraders” (Celgene Corporation, priority 2022, dated 2025).

The target of this test is T1, BCL6 (Homo sapiens, UniProt P41182).
T1 construct: HiBiT-tag knocked into endogenous BCL6 locus using CRISPR; endogenous in cells; host or cells: DHL-4_BCL6_HiBiT cells (CRISPR knock-in)
Nature of the test: BCL6_HiBiT degradation assay (2 h). Type of test: cell-based. The following applies: DHL-4_BCL6_HiBiT cells, read-out: YCon (% remaining maximal effect). An outline of the steps:
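DHL-4 cells carrying CRISPR HiBiT knock-in at endogenous BCL6, treated 2 h at 37 °C with 10-point 3-fold dilutions from 1-10 μM. BCL6 level read by Nano-Glo HiBiT lytic luminescence normalized to DMSO; four-parameter fit gives degradation EC50 and Yconstant (% remaining at maximal effect).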
As to `C[C@@H]1CN(c2ncc(Cl)c(Nc3ccc4c(c3)N(CCC(C)(C)O)C(=O)C4)n2)CC[C@H]1Nc1ccc2c(C3CCC(=O)NC3=O)nn(C)c2c1` (stereo partly drawn) [Example 120, 3-(6-(((3R,4R)-1-(5-chloro-4-((1-(3-hydroxy-3-methylbutyl)-2-oxoindolin-6-yl)amino)pyrimidin-2-yl)-3-methylpiperidin-4-yl)amino)-1-methyl-1H-indazol-3-yl)piperidine-2,6-dione], the Percent BCL6 remaining at maximal degradation (Ycon) is below 20%.
To `CN1C(=O)Cc2cc(Nc3nc(N4CCC(Nc5ccc6c(C7CCC(=O)NC7=O)nn(C)c6c5)C(F)(F)C4)ncc3Cl)ccc21` (stereo not shown) [Example 64, 3-(6-((1-(5-Chloro-4-((1-methyl-2-oxoindolin-5-yl)amino)pyrimidin-2-yl)-3,3-difluoropiperidin-4-yl)amino)-1-methyl-1H-indazol-3-yl)piperidine-2,6-dione] belongs above 60%.
To `CC1C(=O)N(c2ccc3c(C4CCC(=O)NC4=O)nn(C)c3c2)CCN1c1ncc(Cl)c(Nc2ccc3c(c2)CC(=O)N3C)n1` (stereo not shown) [Example 38, 3-(6-(4-(5-chloro-4-((1-methyl-2-oxoindolin-5-yl)amino)pyrimidin-2-yl)-3-methyl-2-oxopiperazin-1-yl)-1-methyl-1H-indazol-3-yl)piperidine-2,6-dione] belongs above 60%.
To `C[C@@H]1C[C@H](N(C)c2ncc(Cl)c(Nc3ccc4c(c3)CC(=O)N4C)n2)CCN1c1ccc2c(C3CCC(=O)NC3=O)nn(C)c2c1` (stereo partly drawn) [Example 4, 3-(6-((2R,4R)-4-((5-chloro-4-((1-methyl-2-oxoindolin-5-yl)amino)pyrimidin-2-yl)(methyl)amino)-2-methylpiperidin-1-yl)-1-methyl-1H-indazol-3-yl)piperidine-2,6-dione] belongs below 20%.
With `C[C@@H]1CN(c2ncc(Cl)c(Nc3ccc4c(c3)CC(=O)N4)n2)CC[C@H]1Nc1ccc2c(C3CCC(=O)NC3=O)nn(C)c2c1` (stereo partly drawn) [Example 114, 3-(6-(((3R,4R)-1-(5-chloro-4-((2-oxoindolin-5-yl)amino)pyrimidin-2-yl)-3-methylpiperidin-4-yl)amino)-1-methyl-1H-indazol-3-yl)piperidine-2,6-dione], the Percent BCL6 remaining at maximal degradation (Ycon) is below 20%.
Next, `C[C@@H]1CN(c2ncc(Cl)c(Nc3cc4c(cc3F)N(C)C(=O)C4)n2)CC[C@H]1Nc1ccc2c(C3CCC(=O)NC3=O)nn(C)c2c1` (stereo partly drawn) [Example 92, 3-(6-(((3R,4R)-1-(5-chloro-4-((6-fluoro-1-methyl-2-oxoindolin-5-yl)amino)pyrimidin-2-yl)-3-methylpiperidin-4-yl)amino)-1-methyl-1H-indazol-3-yl)piperidine-2,6-dione]: below 20%.
Next, `C[C@H]1CN(c2ncc(Cl)c(Nc3ccc4c(c3)CC(=O)N4C)n2)CC[C@H]1Nc1ccc2c(C3CCC(=O)NC3=O)nn(C)c2c1` (stereo partly drawn) [Example 13, 3-(6-(((3S,4R)-1-(5-chloro-4-((1-methyl-2-oxoindolin-5-yl)amino)pyrimidin-2-yl)-3-methylpiperidin-4-yl)amino)-1-methyl-1H-indazol-3-yl)piperidine-2,6-dione]: above 60%; `C[C@@H]1CN(c2ncc(Cl)c(Nc3ccc4c(c3)CC(=O)N4C)n2)CC[C@H]1Nc1ccc2c(C3CCC(=O)NC3=O)nn(C)c2n1` (stereo partly drawn) [Example 62, 3-(6-(((3R,4R)-1-(5-chloro-4-((1-methyl-2-oxoindolin-5-yl)amino)pyrimidin-2-yl)-3-methylpiperidin-4-yl)amino)-1-methyl-1H-pyrazolo[3,4-b]pyridin-3-yl)piperidine-2,6-dione]: below 20%; `C[C@@H]1CN(c2ncc(Cl)c(Nc3ccc4c(c3)CC(=O)N4C)n2)C[C@@H](C)N1c1ccc2c(C3CCC(=O)NC3=O)nn(C)c2c1` (stereo partly drawn) [Example 78, 3-(6-((2R,6R)-4-(5-chloro-4-((1-methyl-2-oxoindolin-5-yl)amino)pyrimidin-2-yl)-2,6-dimethylpiperazin-1-yl)-1-methyl-1H-indazol-3-yl)piperidine-2,6-dione]: 20 to 60%.
To `CC1CCN(c2ncc(Cl)c(Nc3ccc4c(c3)CC(=O)N4C)n2)CCC1Nc1ccc2c(C3CCC(=O)NC3=O)nn(C)c2c1` (stereo not shown) [Example 47, 3-(6-((1-(5-chloro-4-((1-methyl-2-oxoindolin-5-yl)amino)pyrimidin-2-yl)-5-methylazepan-4-yl)amino)-1-methyl-1H-indazol-3-yl)piperidine-2,6-dione] belongs above 60%.
For the compound `C[C@@H]1C[C@@H](Nc2ccc3c(C4CCC(=O)NC4=O)nn(C)c3c2)CCN1c1ncc(Cl)c(Nc2ccc3c(c2)CC(=O)N3C)n1` (stereo partly drawn) [Example 23, 3-(6-(((2R,4S)-1-(5-chloro-4-((1-methyl-2-oxoindolin-5-yl)amino)pyrimidin-2-yl)-2-methylpiperidin-4-yl)amino)-1-methyl-1H-indazol-3-yl)piperidine-2,6-dione], the Percent BCL6 remaining at maximal degradation (Ycon) was above 60%.
To `C[C@@H]1CN(c2ncc(Cl)c(Nc3cnc4c(c3)CC(=O)N4C)n2)CC[C@H]1Nc1ccc2c(N3CCC(=O)NC3=O)nn(C)c2c1` [Example 143, 1-(6-(((3R,4R)-1-(5-chloro-4-((1-methyl-2-oxo-2,3-dihydro-1H-pyrrolo[2,3-b]pyridin-5-yl)amino)pyrimidin-2-yl)-3-methylpiperidin-4-yl)amino)-1-methyl-1H-indazol-3-yl)dihydropyrimidine-2,4(1H,3H)-dione] belongs below 20%; to `C[C@@H]1CN(c2ncc(Cl)c(Nc3cnc4c(c3)CC(=O)N4C)n2)CC[C@H]1Nc1ccc2c(C3CCC(=O)NC3=O)nn(C)c2c1` (stereo partly drawn) [Example 74, 3-(6-(((3R,4R)-1-(5-chloro-4-((1-methyl-2-oxo-2,3-dihydro-1H-pyrrolo[2,3-b]pyridin-5-yl)amino)pyrimidin-2-yl)-3-methylpiperidin-4-yl)amino)-1-methyl-1H-indazol-3-yl)piperidine-2,6-dione], 20 to 60%; to `CCN1C(=O)Cc2cc(Nc3nc(N4CCC(Nc5ccc6c([C@@H]7CCC(=O)NC7=O)nn(C)c6c5)CC4)ncc3Cl)ccc21` (single isomer, unassigned) [Example 91], above 60%.
Next, `CO[C@@H]1CN(c2nc(F)c(Cl)c(Nc3ccc4c(c3)CC(=O)N4C)n2)CC[C@H]1Nc1ccc2c(N3CCC(=O)NC3=O)nn(C)c2c1` [Example 158, 1-(6-(((3R,4R)-1-(5-chloro-4-fluoro-6-((1-methyl-2-oxoindolin-5-yl)amino)pyrimidin-2-yl)-3-methoxypiperidin-4-yl)amino)-1-methyl-1H-indazol-3-yl) dihydropyrimidine-2,4(1H,3H)-dione]: 20 to 60%.
To `CN1C(=O)Cc2cc(Nc3nc(N(C)C4CCN(c5ccc6c(C7CCC(=O)NC7=O)nn(C)c6c5)C5(CCC5)C4)ncc3Cl)ccc21` (stereo not shown) [Example 2, 3-(6-(8-((5-chloro-4-((1-methyl-2-oxoindolin-5-yl)amino)pyrimidin-2-yl)(methyl)amino)-5-azaspiro[3.5]nonan-5-yl)-1-methyl-1H-indazol-3-yl)piperidine-2,6-dione] belongs below 20%; to `C[C@@H]1CN(c2ncc(Cl)c(Nc3ccc4c(c3)CC(=O)N4CCN3CCOCC3)n2)CC[C@H]1Nc1ccc2c(C3CCC(=O)NC3=O)nn(C)c2c1` (stereo partly drawn) [Example 101, 3-(6-(((3R,4R)-1-(5-chloro-4-((1-(2-morpholinoethyl)-2-oxoindolin-5-yl)amino)pyrimidin-2-yl)-3-methylpiperidin-4-yl)amino)-1-methyl-1H-indazol-3-yl)piperidine-2,6-dione], below 20%.
Turning to `C[C@@H]1CN(c2ncc(Cl)c(Nc3ccc4c(c3)CC(=O)N4C)n2)CC[C@@H]1Nc1ccc2c(C3CCC(=O)NC3=O)nn(C)c2c1` (stereo partly drawn) [Example 12, 3-(6-{[(3R,4S)-1-{5-chloro-4-[(1-methyl-2-oxo-2,3-dihydro-1H-indol-5-yl)amino]pyrimidin-2-yl}-3-methylpiperidin-4-yl]amino}-1-methyl-1H-indazol-3-yl)piperidine-2,6-dione], the Percent BCL6 remaining at maximal degradation (Ycon) was below 20%.
To `CN1C(=O)Cc2cc(Nc3nc(N4CC[C@@H](Nc5ccc6c(C7CCC(=O)NC7=O)nn(C)c6c5)[C@H](O)C4)ncc3Cl)ccc21` (stereo partly drawn) [Example 33, 3-(6-(((3R,4R)-1-(5-chloro-4-((1-methyl-2-oxoindolin-5-yl)amino)pyrimidin-2-yl)-3-hydroxypiperidin-4-yl)amino)-1-methyl-1H-indazol-3-yl)piperidine-2,6-dione] belongs below 20%; to `Cn1nc(C2CCC(=O)NC2=O)c2ccc(NC3CCN(c4ncc(Cl)c(Nc5ccc6c(c5)N(CCC(C)(C)O)C(=O)C6)n4)CC3)cc21` (stereo not shown) [Example 9, 3-[6-[[1-[5-Chloro-4-[[1-(3-hydroxy-3-methyl-butyl)-2-oxo-indolin-6-yl]amino]pyrimidin-2-yl]-4-piperidyl]amino]-1-methyl-indazol-3-yl]piperidine-2,6-dione], above 60%; to `CN1C(=O)Cc2cc(Nc3nc(N4CCCC(Nc5ccc6c(C7CCC(=O)NC7=O)nn(C)c6c5)CC4)ncc3Cl)ccc21` (stereo not shown) [Example 31, 3-(6-((1-(5-chloro-4-((1-methyl-2-oxoindolin-5-yl)amino)pyrimidin-2-yl)azepan-4-yl)amino)-1-methyl-1H-indazol-3-yl)piperidine-2,6-dione], above 60%.
To `Cn1nc(C2CCC(=O)NC2=O)c2ccc(N3CCN(c4ncc(Cl)c(Nc5ccc6c(c5)CC(=O)N6)n4)CC3)cc21` (stereo not shown) [Example 34, 3-(6-(4-(5-chloro-4-((2-oxoindolin-5-yl)amino)pyrimidin-2-yl)piperazin-1-yl)-1-methyl-1H-indazol-3-yl)piperidine-2,6-dione] belongs above 60%.
